In patent US20230286983A1 (4E Therapeutics, Inc., priority 2020, published 2023):
Each block holds one molecule with its values, some of them ahead of it.

Tests used:
IL-6 evoked grimace = IL-6 evoked grimace test; assay type: in vivo, ICR mice
Description: Institute for Cancer Research (ICR) mice were used in these experiments. Mice were bred in house at University of Texas at Dallas and used at between 12 and 24 weeks of age. Mice were habituated to plexiglass boxes of approximately 4×6 inches in size with openable tops. Habituation took place over 2 days with animals exposed to the boxes for at least 30 min. A blinded observer scored baseline grimacing using the method previously described by Mogil and colleagues (Langford, et al., Coding of facial expressions of pain in the laboratory mouse. Nat Methods (2010) 7:447-449.). On test day, mice were given test compounds 1 hr prior to injection of interleukin 6 (human recombinant IL-6, R&D Systems) which was given at a dose of 0.1 ng in saline via an intraplantar injection as described previously (Moy et al. The MNK-eIF4E Signaling Axis Contributes to Injury-Induced Nociceptive Plasticity and the Development of Chronic Pain. J Neurosci (2017) 37:7481-7499.). Test compounds were given orally (PO) via a flexible oral gavage canula built for mice. 4ET-01-021 (10.0, 3.0, and 1.0 mg/kg) and 4ET-03-052B (10.0 mg/kg) are efficacious in the IL-6 evoked grimace test in mice. FIG. 5 depicts a comparison of effect size in the IL-6 evoked grimace test. Effect sizes were calculated per mouse by subtracting the baseline grimace score from the sum of the grimace scores for 1 and 3 hr time points. […] FIG. 6 is a graph showing the effect size in the IL-6 evoked grimace test vs. dose of 4ET-01-021.

[1] = Liver microsome stability, mouse; assay type: in vitro ADME; settings: mouse liver microsomes, Table 11b
MNK1 = MNK1 (Homo sapiens, UniProt Q9BUB5); assay: MNK1 substrate phosphorylation assay; assay type: biochemical; settings: recombinant human kinase
MDCK-MDR1 = MDCK-MDR1 permeability (blood brain barrier permeability); assay type: in vitro ADME, Canine; settings: 5 μM
[2] = test system: eIF4E phosphorylation at Serine 209 in the human embryonic kidney (HEK) 293 cell line; assay: eIF4E phosphorylation in HEK 293 cells (fluorescent plate reader); assay type: cell-based; settings: eIF4E phosphorylation at Serine 209, 2 hours exposure
How it was run: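 HEK-293 cells were treated with compound for 2 h, then methanol-fixed and Triton-permeabilized. Ser209 phospho-eIF4E was stained with primary antibody (1:2000, overnight) and an Alexa Fluor 488 secondary. Fluorescence was normalized to DAPI, and IC50 was fitted from concentration-response data.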

MNK2 = MNK2 (Homo sapiens, UniProt Q9HBH9); assay: MNK2 substrate phosphorylation assay; assay type: biochemical; settings: recombinant human kinase
[3] = molecular target: Cdc2-like kinase 4 (CLK4) (Homo sapiens, UniProt Q9HAZ1); assay: Off-target kinase screen CLK4; assay type: biochemical; settings: 1 μM test compound
Source text: (§1) These kinases were chosen because they are the only known off-target hit kinases for eFT508. These assays were done using recombinant human kinases (CLK4, DRAK1 and PKG2) in a substrate phosphorylation assay. % activity remaining after MNK inhibitor treatment is indicated in Table 12.

[4] = Liver microsome stability, human; assay type: in vitro ADME; settings: liver microsomes
[5] = test system: eIF4E phosphorylation at serine 209 in various tumor cell lines; settings: cited from earlier work
P-gp (human MDR1, ABCB1) = assay: MDCK-MDR1 permeability (blood brain barrier permeability); assay type: in vitro ADME, Canine; settings: dog, 5 μM, average of two experiments
[6] = molecular target: T1, death-associated protein kinase-related apoptosis-inducing protein kinase 1 (DRAK1) (Homo sapiens, UniProt Q9UEE5); assay: Off-target kinase screen DRAK1; assay type: biochemical; settings: 1 μM test compound
T1 sequence (Q9UEE5 1-414): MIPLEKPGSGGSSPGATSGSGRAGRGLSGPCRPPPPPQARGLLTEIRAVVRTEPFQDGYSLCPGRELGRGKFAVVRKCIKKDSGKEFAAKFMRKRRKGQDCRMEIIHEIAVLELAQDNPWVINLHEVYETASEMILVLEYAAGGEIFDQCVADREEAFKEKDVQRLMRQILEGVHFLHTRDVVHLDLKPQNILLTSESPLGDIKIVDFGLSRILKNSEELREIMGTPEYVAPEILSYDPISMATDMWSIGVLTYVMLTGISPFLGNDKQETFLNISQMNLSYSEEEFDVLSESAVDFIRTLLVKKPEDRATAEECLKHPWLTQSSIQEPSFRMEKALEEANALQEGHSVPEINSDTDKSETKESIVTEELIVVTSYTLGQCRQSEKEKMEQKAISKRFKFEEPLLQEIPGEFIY
Source text: as §1

[7] = Liver microsome stability, rat; assay type: in vitro ADME; settings: Rat liver microsomes (#)
[8] = test system: diffuse large B cell lymphoma (DLBCL) cell lines; settings: multiple DLBCL cell lines; cited from earlier work
[9] = molecular target: T2, protein kinase G 2 (PKG2) (Homo sapiens, UniProt Q13237); assay: Off-target kinase screen PKG2; assay type: biochemical; settings: 1 μM test compound
T2 sequence (Q13237 1-762): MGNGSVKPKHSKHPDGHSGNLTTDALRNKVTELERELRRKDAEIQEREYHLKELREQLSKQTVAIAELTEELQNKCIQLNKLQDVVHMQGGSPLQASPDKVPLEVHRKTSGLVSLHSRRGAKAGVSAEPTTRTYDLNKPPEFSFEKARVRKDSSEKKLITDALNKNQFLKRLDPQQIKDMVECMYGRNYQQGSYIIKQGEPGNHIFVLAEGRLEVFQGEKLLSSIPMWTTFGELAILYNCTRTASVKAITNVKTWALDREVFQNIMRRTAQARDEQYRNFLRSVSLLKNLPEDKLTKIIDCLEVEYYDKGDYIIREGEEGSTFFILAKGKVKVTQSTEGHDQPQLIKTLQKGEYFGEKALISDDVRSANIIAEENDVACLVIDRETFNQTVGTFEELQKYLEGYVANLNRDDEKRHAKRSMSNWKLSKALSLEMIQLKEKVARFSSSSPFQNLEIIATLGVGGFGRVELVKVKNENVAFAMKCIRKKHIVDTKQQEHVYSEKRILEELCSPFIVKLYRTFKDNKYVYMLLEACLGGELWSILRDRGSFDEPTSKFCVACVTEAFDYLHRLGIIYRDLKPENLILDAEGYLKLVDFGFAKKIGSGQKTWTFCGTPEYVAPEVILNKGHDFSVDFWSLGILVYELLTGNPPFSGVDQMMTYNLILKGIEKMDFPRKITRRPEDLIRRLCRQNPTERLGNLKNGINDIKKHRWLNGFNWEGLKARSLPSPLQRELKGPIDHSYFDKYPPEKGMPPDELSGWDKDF
Source text: as §1

Sequence of Cdc2-like kinase 4 (CLK4) (Q9HAZ1 whole entry): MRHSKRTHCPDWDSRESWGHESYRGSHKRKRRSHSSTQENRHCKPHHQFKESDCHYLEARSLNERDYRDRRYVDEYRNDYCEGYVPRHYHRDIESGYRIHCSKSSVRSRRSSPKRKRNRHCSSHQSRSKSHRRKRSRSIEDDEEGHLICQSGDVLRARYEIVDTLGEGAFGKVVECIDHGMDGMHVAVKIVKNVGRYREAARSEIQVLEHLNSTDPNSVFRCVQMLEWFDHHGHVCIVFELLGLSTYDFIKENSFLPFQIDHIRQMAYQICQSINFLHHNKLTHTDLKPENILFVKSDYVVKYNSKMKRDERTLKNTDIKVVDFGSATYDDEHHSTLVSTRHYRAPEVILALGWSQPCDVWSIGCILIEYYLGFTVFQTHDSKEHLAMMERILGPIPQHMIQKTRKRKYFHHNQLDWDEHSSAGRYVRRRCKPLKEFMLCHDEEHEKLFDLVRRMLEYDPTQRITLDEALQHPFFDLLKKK
Sequence of MNK1 (Q9BUB5 whole entry): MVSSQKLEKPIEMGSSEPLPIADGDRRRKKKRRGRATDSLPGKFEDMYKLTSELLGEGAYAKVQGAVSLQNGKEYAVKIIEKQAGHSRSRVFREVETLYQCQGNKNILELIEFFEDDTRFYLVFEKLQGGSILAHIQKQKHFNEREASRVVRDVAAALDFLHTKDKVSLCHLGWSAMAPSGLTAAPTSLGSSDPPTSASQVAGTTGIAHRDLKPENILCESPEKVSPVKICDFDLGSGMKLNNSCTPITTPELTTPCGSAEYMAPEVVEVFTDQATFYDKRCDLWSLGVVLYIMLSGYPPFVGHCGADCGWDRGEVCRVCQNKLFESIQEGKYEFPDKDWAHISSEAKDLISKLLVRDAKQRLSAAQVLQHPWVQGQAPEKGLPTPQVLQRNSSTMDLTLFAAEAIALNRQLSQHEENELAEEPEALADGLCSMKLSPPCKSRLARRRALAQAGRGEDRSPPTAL
Sequence of MNK2 (Q9HBH9 whole entry): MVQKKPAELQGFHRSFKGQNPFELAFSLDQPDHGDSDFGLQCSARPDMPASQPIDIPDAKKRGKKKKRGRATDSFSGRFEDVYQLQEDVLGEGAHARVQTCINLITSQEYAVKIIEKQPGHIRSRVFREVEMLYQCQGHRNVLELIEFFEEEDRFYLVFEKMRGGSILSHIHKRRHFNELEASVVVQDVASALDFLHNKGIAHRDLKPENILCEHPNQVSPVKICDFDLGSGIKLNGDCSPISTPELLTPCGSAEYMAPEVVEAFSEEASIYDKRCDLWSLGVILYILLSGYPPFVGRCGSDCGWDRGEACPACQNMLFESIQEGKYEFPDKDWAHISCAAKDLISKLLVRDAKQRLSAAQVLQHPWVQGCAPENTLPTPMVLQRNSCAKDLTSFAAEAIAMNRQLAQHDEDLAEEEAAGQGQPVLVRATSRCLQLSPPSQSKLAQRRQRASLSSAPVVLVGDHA

T1/2 [1]: 2.88 h
IC50 (MNK1): 19.9 nM
Efflux ratio (ratio B-A/A-B) (MDCK-MDR1): 2.8
Papp A-B (MDCK-MDR1; Apical to basolateral transport, average of two experiments): 22.9 ×10⁻⁶ cm/s
Papp B-A (MDCK-MDR1; Basolateral to apical transport, average of two experiments): 63.3 ×10⁻⁶ cm/s
IC50 (MNK2): 1.63 nM
SMILES: Cc1cc(Nc2cc(NC(=O)C3CC3)ncn2)c(=O)n2c1C(=O)NC21Cc2ccccc2[C@@H]1F (single isomer, unassigned) [Compound 4ET-03-052B, N-(6-((1′-Fluoro-8-methyl-1,5-dioxo-1,1′,3′,5-tetrahydro-2H-spiro[imidazo[1,5-a]pyridine-3,2′-inden]-6-yl)amino)pyrimidin-4-yl)cyclopropanecarboxamide]
efficacy in the IL-6 evoked grimace test (IL-6 evoked grimace; PO 1 hr prior to IL-6, 4ET-01-021 10.0, 3.0 and 1.0 mg/kg, 4ET-03-052B 10.0 mg/kg): efficacious
effect size in the IL-6 evoked grimace test (IL-6 evoked grimace; sum of grimace scores at 1 and 3 hr minus baseline): statistically-significant effect sizes
IC50 [2]: 11.7 nM

SMILES: Cc1cc(Nc2cc(N)ncn2)c(=O)n2c1C(=O)NC21CCCCC1 [eFT508, reference compound]
remaining activity at 1 µM [3]: 68%
microsomal CLint [4]: 1.88 µL/min/mg
half-life ([4]; read-out: Human liver microsomes t1/2): 12.3 h
IC50 [5]: 2 to 16 nM
half-life ([1]; mouse, liver microsomes, read-out: T1/2): 8.07 h
Papp A→B at 5 μM (P-gp (human MDR1, ABCB1); MDCK-MDR1, Apical to basolateral transport): 26.8 ×10⁻⁶ cm/s
Papp B→A at 5 μM (P-gp (human MDR1, ABCB1); MDCK-MDR1, Basolateral to apical transport): 41.7 ×10⁻⁶ cm/s
remaining activity at 1 µM [6]: 24%
microsomal CLint ([7]; read-out: CLint rodent): 2.86 µL/min/mg
half-life ([7]; read-out: Rodent liver microsomes t1/2): 8.07 h
anti-proliferative activity [8]: anti-proliferative activity
remaining activity at 1 µM [9]: 100%
